Data: patent publication US9713602B1, “Method for facilitating the oxygen release of hemoglobin-based blood substitutes” (National Sun Yat-sen University, priority 2016, dated 2017)
Entries after “also recorded” stand apart in the source; their conditions may differ.

Columns and labels:
fetal hemoglobin (HbF) = fetal hemoglobin (HbF) (Homo sapiens, UniProt P69892+P69905); assay: oxygen equilibrium curves / P50 value of fetal hemoglobin (HbF); format: biochemical; conditions: for shift of the oxygen equilibrium curve of fetal hemoglobin (HbF): 0.6-4.0 mM compound with 0.6 or 2.5 mM 2,3-BPG (FIG. 9, 10); for oxygen affinity modulating effect (increase of P50 value) on fetal hemoglobin compared with 2,3-BPG: FIG. 8, varying concentrations; for oxygen release efficiency of fetal hemoglobin (HbF) relative to normal hemoglobin: with 2,3-BPG (FIG. 9, 10)
Sequence of fetal hemoglobin (HbF) (P69905 2-142 limits assumed): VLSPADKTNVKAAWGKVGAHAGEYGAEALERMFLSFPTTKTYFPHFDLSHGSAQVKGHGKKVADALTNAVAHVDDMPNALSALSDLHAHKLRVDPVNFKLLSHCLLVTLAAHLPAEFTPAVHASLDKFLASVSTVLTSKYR
Sequence of fetal hemoglobin (HbF) (P69892 2-147 limits assumed): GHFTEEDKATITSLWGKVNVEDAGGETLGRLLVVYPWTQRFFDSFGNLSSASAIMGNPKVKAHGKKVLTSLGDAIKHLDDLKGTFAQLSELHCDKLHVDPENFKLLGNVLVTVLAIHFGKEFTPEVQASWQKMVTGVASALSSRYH

hemoglobin = hemoglobin (Homo sapiens, UniProt P68871+P69905); assay: oxygen equilibrium curves / P50 value of hemoglobin; format: biochemical; conditions: for effect with 2,3-BPG in modulating hemoglobin allostery: FIG. 2
Sequence of hemoglobin (P69905 2-142 limits assumed): as the sequence (P69905 2-142 limits assumed) above
Sequence of hemoglobin (P68871 2-147 limits assumed): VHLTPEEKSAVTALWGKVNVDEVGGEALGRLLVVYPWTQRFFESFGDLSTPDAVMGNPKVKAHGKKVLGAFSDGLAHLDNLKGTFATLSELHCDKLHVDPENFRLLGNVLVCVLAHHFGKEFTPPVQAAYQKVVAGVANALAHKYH

SMILES: O=C(O)C(COP(=O)(O)O)OP(=O)(O)O (centres unmarked) [2,3-BPG, 2,3-bisphosphorglycerate]
- modulating effect of 2,3-BPG on fetal hemoglobin (HbF) relative to normal hemoglobin (fetal hemoglobin (HbF)): not as effective as that on the normal hemoglobin
- oxygen release efficiency of hemoglobin (hemoglobin; 1.2 mM 2,3-BPG, PO2 20 mmHg): 40%
- oxygen saturation fraction of hemoglobin (hemoglobin; 1.2 mM 2,3-BPG, PO2 20 mmHg (FIG. 7)): approximately 60%
- oxygen saturation fraction of hemoglobin (hemoglobin; 12 mM 2,3-BPG, fixed oxygen partial pressure of 20 mmHg, 80% where no 2,3-BPG is present): 35%
- oxygen release efficiency of hemoglobin (hemoglobin; 12 mM 2,3-BPG, oxygen partial pressure 20 mmHg, 20% without 2,3-BPG): 65%
- P50 value of hemoglobin (hemoglobin; approximately 4 mM 2,3-BPG, no phthalide compound): 18.8 mmHg
- oxygen release efficiency of normal cells (hemoglobin; varying concentrations of 2,3-BPG, PO2 of normal cells, from 20%): ~65%
- oxygen saturation fraction of hemoglobin (hemoglobin; varying concentrations of 2,3-BPG, brain physiological PO2 (33.8±2.6 mmHg), from 90% (FIG. 4)): ~70%
- oxygen release efficiency of hemoglobin (hemoglobin; varying concentrations of 2,3-BPG, brain physiological PO2, from 10%): 30%

SMILES: CCC/C=C1\OC(=O)c2ccccc21 [Z-butylidenephthalide]
- shift of the oxygen equilibrium curve of fetal hemoglobin (HbF) (fetal hemoglobin (HbF)): effectively shift the oxygen equilibrium curve for the fetal hemoglobin (HbF) to the right; also recorded: effectively shift the oxygen equilibrium curve of the fetal hemoglobin (HbF) to the right
- oxygen affinity modulating effect (increase of P50 value) on fetal hemoglobin compared with 2,3-BPG (fetal hemoglobin (HbF)): stronger modulating effect than 2,3-BPG; also recorded: higher than that of 2,3-BPG
- oxygen release efficiency of fetal hemoglobin (HbF) relative to normal hemoglobin (fetal hemoglobin (HbF)): achieve the same oxygen release efficiency as the normal hemoglobin

SMILES: CCC/C=C1\OC(=O)C2=C1CCC=C2 [Z-ligustilide]
- shift of the oxygen equilibrium curve of fetal hemoglobin (HbF) (fetal hemoglobin (HbF)): effectively shift the oxygen equilibrium curve for the fetal hemoglobin (HbF) to the right
- oxygen affinity modulating effect (increase of P50 value) on fetal hemoglobin compared with 2,3-BPG (fetal hemoglobin (HbF)): stronger modulating effect than 2,3-BPG; also recorded: higher than that of 2,3-BPG
- oxygen release efficiency of fetal hemoglobin (HbF) relative to normal hemoglobin (fetal hemoglobin (HbF)): achieve the same oxygen release efficiency as the normal hemoglobin
- effect with 2,3-BPG in modulating hemoglobin allostery (hemoglobin): synergistic effect

SMILES: CCC/C=C1\OC(=O)C2=C1CC[C@@H](O)[C@@H]2O [senkyunolide I]
- effect with 2,3-BPG in modulating hemoglobin allostery (hemoglobin): synergistic effect
